Assay results: ChEMBL document CHEMBL1201862, “PubChem BioAssay data set” (2004)
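48-hour exposure; five concentrations; linearly interpolated endpoints. Abbreviation: GI50, concentration required for 50% inhibition of growth.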 Active and inactive are the calls of the source. Rule as the data show it: active = GI50 up to about 1.1 µM and inactive = higher.

How the values were obtained:
Assay in all cases: NCI-60 cell line screen, 48 h
OVCAR-8 = test system: OVCAR-8
DU-145 = test system: DU-145
NCI-H226 = test system: NCI-H226
TK-10 = test system: TK-10
SN12C = test system: SN12C
MDA-N = test system: MDA-N
SK-MEL-5 = test system: SK-MEL-5
SK-MEL-2 = test system: SK-MEL-2
BT-549 = test system: BT-549
PC-3 = test system: PC-3
SR = test system: SR
RXF 393 = test system: RXF 393
NCI-H460 = test system: NCI-H460
HCC 2998 = test system: HCC 2998
OVCAR-4 = test system: OVCAR-4
MDA-MB-435 = test system: MDA-MB-435
NCI-H23 = test system: NCI-H23
OVCAR-3 = test system: OVCAR-3
IGROV-1 = test system: IGROV-1
UACC-257 = test system: UACC-257
SNB-75 = test system: SNB-75
HCT-15 = test system: HCT-15
Hs-578T = test system: Hs-578T
U-251 = test system: U-251
M14 = test system: M14
UO-31 = test system: UO-31
MCF7 = test system: MCF7
MOLT-4 = test system: MOLT-4
A549 = test system: A549
EKVX = test system: EKVX
CCRF-CEM = test system: CCRF-CEM
T47D = test system: T47D
KM12 = test system: KM12
OVCAR-5 = test system: OVCAR-5
HCT-116 = test system: HCT-116
SNB-19 = test system: SNB-19
NCI-H522 = test system: NCI-H522
COLO 205 = test system: COLO 205
CAKI-1 = test system: CAKI-1
SK-OV-3 = test system: SK-OV-3
NCI/ADR-RES = test system: NCI/ADR-RES
SF-268 = test system: SF-268
MDA-MB-231 = test system: MDA-MB-231
SF-539 = test system: SF-539
Malme-3M = test system: Malme-3M
SF-295 = test system: SF-295
SK-MEL-28 = test system: SK-MEL-28
LOX IMVI = test system: LOX IMVI
RPMI-8226 = test system: RPMI-8226
SW-620 = test system: SW-620
786-0 = test system: 786-0
ACHN = test system: ACHN
HOP-62 = test system: HOP-62
HT-29 = test system: HT-29
K562 = test system: K562
UACC-62 = test system: UACC-62
HL-60 = test system: HL-60
A498 = test system: A498

## Cc1ccc(/C=C/c2n[nH]c(N/N=C/c3ccc4c(c3)OCO4)nc2=O)cc1
OVCAR-8
  GI50: 15.5 µM (inactive)
DU-145
  GI50: 19.4 µM (inactive)
NCI-H226
  GI50: 26.9 µM (inactive)
TK-10
  GI50: 25.9 µM (inactive)
SN12C
  GI50: 18.5 µM (inactive)
MDA-N
  GI50: 25.3 µM (inactive)
SK-MEL-5
  GI50: 30.1 µM (inactive)
SK-MEL-2
  GI50: 30.8 µM (inactive)
BT-549
  GI50: 17.9 µM (inactive)
PC-3
  GI50: 21 µM (inactive)
SR
  GI50: 11.2 µM (inactive)
RXF 393
  GI50: 27.2 µM (inactive)
NCI-H460
  GI50: 24.9 µM (inactive)
HCC 2998
  GI50: 22.3 µM (inactive)
OVCAR-4
  GI50: 19.3 µM (inactive)
MDA-MB-435
  GI50: 33.4 µM (inactive)
NCI-H23
  GI50: 15.4 µM (inactive)
OVCAR-3
  GI50: 19.6 µM (inactive)
IGROV-1
  GI50: 20.2 µM (inactive)
UACC-257
  GI50: 40.1 µM (inactive)
SNB-75
  GI50: 15 µM (inactive)
HCT-15
  GI50: 44.9 µM
Hs-578T
  GI50: 13.6 µM (inactive)
U-251
  GI50: 17.6 µM (inactive)
M14
  GI50: 36.6 µM (inactive)
UO-31
  GI50: 88.7 µM (inactive)
MCF7
  GI50: 23.3 µM (inactive)
MOLT-4
  GI50: 39.9 µM (inactive)
A549
  GI50: 38.5 µM (inactive)
EKVX
  GI50: 35.3 µM (inactive)
CCRF-CEM
  GI50: 18.7 µM (inactive)
T47D
  GI50: 36.6 µM (inactive)
KM12
  GI50: 17.3 µM (inactive)
OVCAR-5
  GI50: > 100 µM (inactive)
HCT-116
  GI50: 21.1 µM (inactive)
SNB-19
  GI50: 18.5 µM (inactive)
NCI-H522
  GI50: 28.8 µM (inactive)
COLO 205
  GI50: 74.3 µM (inactive)
CAKI-1
  GI50: 33.3 µM (inactive)
SK-OV-3
  GI50: 30.5 µM (inactive)
NCI/ADR-RES
  GI50: 9.23 µM (inactive)
SF-268
  GI50: 17.2 µM (inactive)
MDA-MB-231
  GI50: 15.5 µM (inactive)
SF-539
  GI50: 21 µM (inactive)
Malme-3M
  GI50: 3.28 µM (inactive)
SF-295
  GI50: 33.7 µM (inactive)
SK-MEL-28
  GI50: 16 µM (inactive)
LOX IMVI
  GI50: 19.6 µM (inactive)
RPMI-8226
  GI50: 67.8 µM (inactive)
SW-620
  GI50: 19.5 µM (inactive)
786-0
  GI50: 14.4 µM (inactive)
ACHN
  GI50: 25.2 µM (inactive)
HOP-62
  GI50: 19 µM (inactive)
HT-29
  GI50: 24 µM (inactive)
K562
  GI50: 30.1 µM (inactive)

## N#C/C(N)=C(C#N)/N=C/NCc1ccccc1
OVCAR-8
  GI50: > 100 µM (inactive)
DU-145
  GI50: > 100 µM (inactive)
NCI-H226
  GI50: > 100 µM (inactive)
TK-10
  GI50: > 100 µM (inactive)
SN12C
  GI50: > 100 µM (inactive)
MDA-N
  GI50: > 100 µM (inactive)
SK-MEL-5
  GI50: > 100 µM (inactive)
SK-MEL-2
  GI50: 38.4 µM (inactive)
BT-549
  GI50: > 100 µM (inactive)
PC-3
  GI50: > 100 µM (inactive)
SR
  GI50: > 100 µM (inactive)
NCI-H460
  GI50: > 100 µM (inactive)
HCC 2998
  GI50: > 100 µM (inactive)
OVCAR-4
  GI50: > 100 µM (inactive)
MDA-MB-435
  GI50: > 100 µM (inactive)
NCI-H23
  GI50: > 100 µM (inactive)
UACC-62
  GI50: 95.5 µM (inactive)
OVCAR-3
  GI50: > 100 µM (inactive)
IGROV-1
  GI50: > 100 µM (inactive)
UACC-257
  GI50: > 100 µM (inactive)
SNB-75
  GI50: > 100 µM (inactive)
HCT-15
  GI50: > 100 µM
Hs-578T
  GI50: > 100 µM (inactive)
U-251
  GI50: > 100 µM (inactive)
M14
  GI50: > 100 µM (inactive)
UO-31
  GI50: > 100 µM (inactive)
MCF7
  GI50: > 100 µM (inactive)
MOLT-4
  GI50: > 100 µM (inactive)
A549
  GI50: > 100 µM (inactive)
EKVX
  GI50: > 100 µM (inactive)
CCRF-CEM
  GI50: > 100 µM (inactive)
HL-60
  GI50: > 100 µM (inactive)
T47D
  GI50: 75.9 µM (inactive)
KM12
  GI50: > 100 µM (inactive)
OVCAR-5
  GI50: > 100 µM (inactive)
HCT-116
  GI50: > 100 µM (inactive)
SNB-19
  GI50: > 100 µM (inactive)
NCI-H522
  GI50: > 100 µM (inactive)
COLO 205
  GI50: > 100 µM (inactive)
CAKI-1
  GI50: > 100 µM (inactive)
SK-OV-3
  GI50: > 100 µM (inactive)
NCI/ADR-RES
  GI50: 50.1 µM (inactive)
SF-268
  GI50: > 100 µM (inactive)
MDA-MB-231
  GI50: > 100 µM (inactive)
SF-539
  GI50: > 100 µM (inactive)
Malme-3M
  GI50: > 100 µM (inactive)
SF-295
  GI50: > 100 µM (inactive)
SK-MEL-28
  GI50: > 100 µM (inactive)
LOX IMVI
  GI50: > 100 µM (inactive)
A498
  GI50: > 100 µM (inactive)
RPMI-8226
  GI50: > 100 µM (inactive)
SW-620
  GI50: > 100 µM (inactive)
786-0
  GI50: > 100 µM (inactive)
ACHN
  GI50: > 100 µM (inactive)
HOP-62
  GI50: > 100 µM (inactive)
HT-29
  GI50: > 100 µM (inactive)
K562
  GI50: > 100 µM (inactive)
